How the values were obtained:
[1] = Liquid
[2] = φn = volume fraction of the nth substance listed; details: Liquid, φ1 = 0.55

CC(O)CO (centres undefined) [1,2-propanediol]
[1]
Details	specific volume [m3/kg]
273.15 K, 100 kPa, Vibrating tube method	0.0009519
274.15 K, 100 kPa, Vibrating tube method	0.0009525
275.15 K, 100 kPa, Vibrating tube method	0.0009532
276.15 K, 100 kPa, Vibrating tube method	0.0009538
277.15 K, 100 kPa, Vibrating tube method	0.0009544
278.15 K, 100 kPa, Vibrating tube method	0.0009551
279.15 K, 100 kPa, Vibrating tube method	0.0009557
280.15 K, 100 kPa, Vibrating tube method	0.0009563
281.15 K, 100 kPa, Vibrating tube method	0.000957
282.16 K, 100 kPa, Vibrating tube method	0.0009576
283.16 K, 100 kPa, Vibrating tube method	0.0009583
284.16 K, 100 kPa, Vibrating tube method	0.0009589
285.16 K, 100 kPa, Vibrating tube method	0.0009596
286.16 K, 100 kPa, Vibrating tube method	0.0009602
287.16 K, 100 kPa, Vibrating tube method	0.0009609
287.78 K, 298200 kPa, Bellows volumetry	0.0008796
287.98 K, 348900 kPa, Bellows volumetry	0.0008706
288.05 K, 100 kPa, Vibrating tube method	0.0009615
288.05 K, 49200 kPa, Bellows volumetry	0.0009434
288.1 K, 299700 kPa, Bellows volumetry	0.0008829
288.11 K, 148700 kPa, Bellows volumetry	0.0009148
288.12 K, 198400 kPa, Bellows volumetry	0.0009035
288.12 K, 248700 kPa, Bellows volumetry	0.0008932
288.14 K, 99900 kPa, Bellows volumetry	0.0009277
288.15 K, 99300 kPa, Bellows volumetry	0.000926
288.16 K, 100 kPa, Vibrating tube method	0.0009616
288.17 K, 49000 kPa, Bellows volumetry	0.0009425
288.17 K, 349200 kPa, Bellows volumetry	0.0008746
288.2 K, 249300 kPa, Bellows volumetry	0.0008891
288.21 K, 148200 kPa, Bellows volumetry	0.0009125
288.22 K, 99800 kPa, Bellows volumetry	0.0009279
288.24 K, 199500 kPa, Bellows volumetry	0.0009
288.28 K, 149900 kPa, Bellows volumetry	0.0009146
288.29 K, 250100 kPa, Bellows volumetry	0.0008927
288.31 K, 100 kPa, Vibrating tube method	0.0009617
288.31 K, 199600 kPa, Bellows volumetry	0.0009031
288.31 K, 299900 kPa, Bellows volumetry	0.0008834
288.32 K, 349100 kPa, Bellows volumetry	0.000875
288.34 K, 100 kPa, Vibrating tube method	0.0009617
288.38 K, 48800 kPa, Bellows volumetry	0.0009437
289.16 K, 100 kPa, Vibrating tube method	0.0009622
290.15 K, 100 kPa, Vibrating tube method	0.0009629
291.15 K, 100 kPa, Vibrating tube method	0.0009636
292.15 K, 100 kPa, Vibrating tube method	0.0009643
293.15 K, 100 kPa, Vibrating tube method	0.0009649
294.15 K, 100 kPa, Vibrating tube method	0.0009656
295.15 K, 100 kPa, Vibrating tube method	0.0009663
296.16 K, 100 kPa, Vibrating tube method	0.000967
297.16 K, 100 kPa, Vibrating tube method	0.0009677
298.16 K, 100 kPa, Vibrating tube method	0.0009684
299.16 K, 100 kPa, Vibrating tube method	0.0009691
300.16 K, 100 kPa, Vibrating tube method	0.0009698
301.16 K, 100 kPa, Vibrating tube method	0.0009705
302.16 K, 100 kPa, Vibrating tube method	0.0009712
303.16 K, 100 kPa, Vibrating tube method	0.0009719
304.15 K, 100 kPa, Vibrating tube method	0.0009726
305.15 K, 100 kPa, Vibrating tube method	0.0009733
306.15 K, 100 kPa, Vibrating tube method	0.000974
307.15 K, 100 kPa, Vibrating tube method	0.0009747
308.15 K, 100 kPa, Vibrating tube method	0.0009754
309.15 K, 100 kPa, Vibrating tube method	0.0009761
310.15 K, 100 kPa, Vibrating tube method	0.0009769
311.15 K, 100 kPa, Vibrating tube method	0.0009776
312.15 K, 100 kPa, Vibrating tube method	0.0009783
313.15 K, 100 kPa, Vibrating tube method	0.000979

CC(O)CO (centres undefined) [1,2-propanediol] + O
[2]
Details	specific volume [m3/kg]
273.15 K, 100 kPa, Vibrating tube method	0.0009499
274.15 K, 100 kPa, Vibrating tube method	0.0009505
275.15 K, 100 kPa, Vibrating tube method	0.000951
276.15 K, 100 kPa, Vibrating tube method	0.0009516
277.15 K, 100 kPa, Vibrating tube method	0.0009521
278.15 K, 100 kPa, Vibrating tube method	0.0009527
279.15 K, 100 kPa, Vibrating tube method	0.0009533
280.15 K, 100 kPa, Vibrating tube method	0.0009539
281.15 K, 100 kPa, Vibrating tube method	0.0009544
282.15 K, 100 kPa, Vibrating tube method	0.000955
283.15 K, 100 kPa, Vibrating tube method	0.0009556
284.15 K, 100 kPa, Vibrating tube method	0.0009562
285.16 K, 100 kPa, Vibrating tube method	0.0009568
286.16 K, 100 kPa, Vibrating tube method	0.0009574
287.16 K, 100 kPa, Vibrating tube method	0.0009579
287.99 K, 198800 kPa, Bellows volumetry	0.0009078
288 K, 100100 kPa, Bellows volumetry	0.0009305
288.03 K, 49500 kPa, Bellows volumetry	0.0009439
288.04 K, 148900 kPa, Bellows volumetry	0.0009188
288.11 K, 248600 kPa, Bellows volumetry	0.0008977
288.11 K, 298400 kPa, Bellows volumetry	0.0008885
288.12 K, 49600 kPa, Bellows volumetry	0.0009432
288.12 K, 198700 kPa, Bellows volumetry	0.000907
288.12 K, 348400 kPa, Bellows volumetry	0.0008794
288.13 K, 100 kPa, Vibrating tube method	0.0009585
288.13 K, 98100 kPa, Bellows volumetry	0.0009301
288.13 K, 148600 kPa, Bellows volumetry	0.0009182
288.16 K, 100 kPa, Vibrating tube method	0.0009585
288.22 K, 249300 kPa, Bellows volumetry	0.000897
288.3 K, 100900 kPa, Bellows volumetry	0.0009295
288.31 K, 149300 kPa, Bellows volumetry	0.0009178
288.31 K, 201100 kPa, Bellows volumetry	0.0009066
288.31 K, 300500 kPa, Bellows volumetry	0.0008875
288.31 K, 348700 kPa, Bellows volumetry	0.0008793
288.32 K, 100 kPa, Vibrating tube method	0.0009586
288.33 K, 49800 kPa, Bellows volumetry	0.0009434
288.33 K, 249400 kPa, Bellows volumetry	0.0008969
288.35 K, 350000 kPa, Bellows volumetry	0.0008796
288.36 K, 299200 kPa, Bellows volumetry	0.0008882
289.16 K, 100 kPa, Vibrating tube method	0.0009591
290.16 K, 100 kPa, Vibrating tube method	0.0009597
291.15 K, 100 kPa, Vibrating tube method	0.0009603
292.15 K, 100 kPa, Vibrating tube method	0.000961
293.15 K, 100 kPa, Vibrating tube method	0.0009616
294.15 K, 100 kPa, Vibrating tube method	0.0009622
295.15 K, 100 kPa, Vibrating tube method	0.0009628
296.16 K, 100 kPa, Vibrating tube method	0.0009634
297.16 K, 100 kPa, Vibrating tube method	0.0009641
298.16 K, 100 kPa, Vibrating tube method	0.0009647
299.16 K, 100 kPa, Vibrating tube method	0.0009653
300.16 K, 100 kPa, Vibrating tube method	0.000966
301.16 K, 100 kPa, Vibrating tube method	0.0009666
302.16 K, 100 kPa, Vibrating tube method	0.0009673
303.16 K, 100 kPa, Vibrating tube method	0.0009679
304.16 K, 100 kPa, Vibrating tube method	0.0009685
305.16 K, 100 kPa, Vibrating tube method	0.0009692
306.16 K, 100 kPa, Vibrating tube method	0.0009699
307.15 K, 100 kPa, Vibrating tube method	0.0009705
308.15 K, 100 kPa, Vibrating tube method	0.0009712
309.15 K, 100 kPa, Vibrating tube method	0.0009719
310.15 K, 100 kPa, Vibrating tube method	0.0009725
311.15 K, 100 kPa, Vibrating tube method	0.0009732
312.15 K, 100 kPa, Vibrating tube method	0.0009739
313.15 K, 100 kPa, Vibrating tube method	0.0009746

From the NIST ThermoML archive (doi:10.1021/je9010568)
